Test results: patent US20250333440A1, “Azole Tripeptides as Vasodilators” (University of Kansas, priority 2024, published 2025)

Legend:
[1] = tested on: chicken embryos exposed to CoCl2; test: rescue of embryos administered a 100-fold lethal dose of hypoxia-inducing CoCl2; assay type: in vivo; conditions: CoCl2 1 M; 2.4 g/kg on Day 6
blood vessels in the CAM [2] = test: chick chorioallantoic membrane assay (CAM), vasculature analysed with NIH ImageJ; assay type: in vivo, Brown Leghorn chicken embryos; conditions: for effect on branching compared to DMSO control / effect on vascular density (VD) compared to DMSO control / effect on vessel diameter compared to DMSO control / effect on vessel length density (VLD) compared to DMSO control: 24 h after administration
Method: (§1) At day 2, the egg was carefully cleaned with isopropanol again and a small opening was carved near its air sac through which approximately 3 mL of albumin was removed. The opening was sealed with medical tape and a larger square opening of approximately 1×1 cm was carved near the center of the egg using a Dremer Stylo+ tool. The egg was further cleaned in order to remove debris and the eggshell membrane was carefully removed using sterilized tweezers. The opening was sealed using clear tape and the eggs were incubated for four more days under the same conditions after disabling the auto-turning mechanism of the incubator.
(§2) The tape covering the opening in the egg was carefully removed and the disc was carefully placed on top of the chorioallantoic membrane (e.g., CAM) using sterilized tweezers, then the opening was resealed, and the eggs were placed again in the incubator.
(§3) The paper disc was carefully removed, and the CAM was photographed. For the Miles assay approximately 100 μl of a 1% w/v solution of Evans Blue dye was injected in the CAM and infiltration of the dye into the blood vessels was analyzed using an Andonstar digital microscope equipped with a 60× magnification lens. If the dye infiltrated the blood vessels the test was considered positive. The photographs were later cropped to include only the CAM and analyzed using the NIH ImageJ software package as follows.
To analyze the extent of branching the blood vessels were carefully traced in order for the ImageJ software to be able to distinguish them for the background. The traced images were opened on the ImageJ software, converted into an 8 bit image and the threshold was adjusted to exclude any possible background signal. This process gave a binary (black and white) map of the vasculature which was then skeletonized (converted into a 1 pixel wide map) and the skeleton was analyzed to determine the number of branches and junction voxels (pixels connected to more than 2 other pixels, i.e. pixels in which the map divides).
To analyze the vascular length density and vascular density the cropped image was opened on the ImageJ software, and the Mexican Hat filter plugin was applied using a radius of 5.0. After this, the image was made binary and the Vascular Density function of the Vessel Analysis plugin was used to determine both parameters after carefully tracing the image so that only the CAM area was included on the calculation.
To analyze the vessel the cropped image was opened on the ImageJ software, and the Mexican Hat filter plugin was applied using a radius of 5.0.

blood vessels in the CAM [3] = test: Miles assay (Evans Blue) / vascular permeability in the CAM; design: species or system Brown Leghorn chicken embryos; conditions: in vivo
Method: as §3, with “After 24 hours, the tape was removed, and the opening was further expanded until all the possible area of the CAM was exposed. The paper” for “The paper”

chicken embryos = assay type: in vivo, Brown Leghorn chicken embryos; design: embryo survival: unit of the concentration uncertain; conditions: for embryo survival: 40 (unit uncertain) dose; for embryo survival / embryos that survived: 24 h; for embryos that survived: 40 μM dose
Method: as §1, §2
The protocol included DMSO as a negative control and Razuprotafib as a positive control. The protocol also included the heptapeptide NLLMAAS as a negative control, which is an orthosteric antagonist of ANG-1.

[4] = single dose 40 μM (0.91 mg/kg) on Day 6, 24 h post dose

In the case of `COC(=O)[C@H](Cn1cncn1)NC(=O)[C@H](Cn1nnnc1C)NC(=O)[C@H](Cn1nnc2ccccc21)NC(=O)C(F)(F)F` [Compound 1, methyl (S)-2-((S)-2-((S)-3-(1H-benzo[d][1,2,3]triazol-1-yl)-2-(2,2,2-trifluoroacetamido)propanamido)-3-(5-methyl-1H-tetrazol-1-yl)propanamido)-3-(1H-1,2,4-triazol-1-yl)propanoate], the “embryos rescued from a 100-fold lethal dose of CoCl2” value [1] is reported as 25%, the “aberrant angiogenesis or vascular remodeling (vessel density/branching mapping)” value (blood vessels in the CAM [2]; 40 μM) is reported as “did not induce” and the “time for which activity comparable to FDA approved vasodilators at 10 minutes was maintained” value (blood vessels in the CAM [2]; CAM) is reported as 24 h. For the same molecule, the decrease in vessel length density (VLD) compared with DMSO control (blood vessels in the CAM [2]; [4]) was 17%, the “increase in vessel diameter compared with DMSO control” value (blood vessels in the CAM [2]; [4]) was 124% and the “decrease in vessel length density (VLD) compared with DMSO control” value (blood vessels in the CAM [2]; single dose 40 μM (0.91 mg/kg) on Day 6, 24 h post dose, listed as Compound 2) was 17%. For the same molecule, the “integrity of vessel cell walls (Miles assay)” value (blood vessels in the CAM [3]) was “did not weaken”, the vascular permeability (blood vessels in the CAM [3]) was “did not increase permeability” and the embryo survival (chicken embryos) was “almost all embryos”. The “indications of hazardous tumor growth or teratogenic effects” value (chicken embryos; single (Day 6) dosing at 40 μM) was “no indications” and the mortality rates (chicken embryos; single (Day 6) dosing at 40 μM) was “not statistically significant”.

For `COC(=O)N[C@@H](Cc1ccccc1)C(=O)N[C@@H](Cc1ccc(NS(=O)(=O)O)cc1)c1csc(-c2cccs2)n1` [Razuprotafib], the “effect on branching compared to DMSO control” value (blood vessels in the CAM [2]; 40 μM) was “no changes were observed”, the “effect on vascular density (VD) compared to DMSO control” value (from here on “effect … (VD) compared to DMSO control”) (blood vessels in the CAM [2]; 40 μM) was “no changes were observed” and the “effect on vessel diameter compared to DMSO control” value (blood vessels in the CAM [2]; 40 μM) was “no changes were observed”. The “effect on vessel length density (VLD) compared to DMSO control” value (shortened to “effect … (VLD) compared to DMSO control”) (blood vessels in the CAM [2]; 40 μM) was “no changes were observed” and the embryo survival (chicken embryos) was “almost all embryos”.

In the case of `CCOC(=O)C1=C(COCCN)NC(C)=C(C(=O)OC)C1c1ccccc1Cl` (centres unmarked) [amlodipine], the embryos that survived (chicken embryos) is reported as “Two out of three”.

`O=[N+]([O-])O[C@@H]1CO[C@H]2[C@@H]1OC[C@@H]2O` [isosorbide, isosorbide mononitrate] was tested, and the “effect … (VD) compared to DMSO control” value (blood vessels in the CAM [2]; 40 μM) was “did not observe effects”, the “effect on vessel diameter compared to DMSO control” value (blood vessels in the CAM [2]; 40 μM) was “did not observe effects” and the “effect … (VLD) compared to DMSO control” value (blood vessels in the CAM [2]; 40 μM) was “did not observe effects”. The embryos that survived (chicken embryos) was “Two out of three”.

In the case of “NLLMAAS [heptapeptide NLLMAAS, an orthosteric antagonist of ANG-1 (antiangiogenic), negative control]”, the “effect on branching compared to DMSO control” value (blood vessels in the CAM [2]; 40 mM (1075 mg/Kg)) is reported as “did not have any effects”, the “effect … (VD) compared to DMSO control” value (blood vessels in the CAM [2]; 40 mM (1075 mg/Kg)) is reported as “did not have any effects” and the “effect on vessel diameter compared to DMSO control” value (blood vessels in the CAM [2]; 40 mM (1075 mg/Kg)) is reported as “did not have any effects”. For the same molecule, the “effect … (VLD) compared to DMSO control” value (blood vessels in the CAM [2]; 40 mM (1075 mg/Kg)) was “did not have any effects”.

B1: ANG-1 protein: ANG-1 protein (Gibco) (protein, UniProt Q15389 16-498, looked up)
Angiopoietin-1: HIGCSNQRRSPENSGRRYNRIQHGQCAYTFILPEHDGNCRESTTDQYNTNALQRDAPHVEPDFSSQKLQHLEHVMENYTQWLQKLENYIVENMKSEMAQIQQNAVQNHTATMLEIGTSLLSQTAEQTRKLTDVETQVLNQTSRLEIQLLENSLSTYKLEKQLLQQTNEILKIHEKNSLLEHKILEMEGKHKEELDTLKEEKENLQGLVTRQTYIIQELEKQLNRATTNNSVLQKQQLELMDTVHNLVNLCTKEGVLLKGGKREEEKPFRDCADVYQAGFNKSGIYTIYINNMPEPKKVFCNMDVNGGGWTVIQHREDGSLDFQRGWKEYKMGFGNPSGEYWLGNEFIFAITSQRQYMLRIELMDWEGNRAYSQYDRFHIGNEKQNYRLYLKGHTGTAGKQSSLILHGADFSTKDADNDNCMCKCALMLTGGWWFDACGPSNLNGMFYTAGQNHGKLNGIKWHYFKGPSYSLRSTTMMIRPLDF
With B1 the “effects on CAM vasculature (vessel diameter, vessel length density) compared to DMSO controls” value (blood vessels in the CAM [2]; 0.75 mg/Kg (proteins 18.87 μM, antibody 1 mg/mL)) was “did not produce any effects significantly different”.
